# Measurements published in ChEMBL document CHEMBL5728321, “Therapeutically active compounds and their methods of use” (2021).
# Experiment: In Vitro Assays for IDH1m (R132H or R132C) Inhibitors: In the primary reaction, the reduction of α-KG acid to 2-HG is accompanied by a concomitant oxidation of NADPH to NADP. The amount of NADPH remaining at the end of the reaction time is measured in a secondary diaphorase/resazurin reaction in which the NADPH is consumed in a 1:1 molar ratio with the conversion of resazurin to the highly fluorescent resorufin. […] The mixture of compound, enzyme, and cofactor is pre-incubated at room temperature for 1 hr prior to the addition of alpha-ketoglutarate. To perform the secondary reaction, 10 uL of 1× buffer containing 36 μg/ml diaphorase and 30 mM resazurin is added to the primary reaction and incubated for a further 5 minutes at 25° C. Florescence is read on a Spectramax platereader at Ex 544 Em 590. Compounds or compound dilutions are prepared in 100% DMSO concentration and diluted 1:50 into the final reaction. IDH1 wt/IDH1 R132C is assayed under similar conditions except that 1× Buffer is 50 mM K2HPO4, pH 6.5; 10 mM MgCl2; 10% glycerol; 0.03% (w/v) bovine serum albumin and final concentrations are 0.4 ug/mL (4.3 nM) IDH1 wt/IDH1 R132C heterodimer, 0.02 mM alpha-ketoglutarate, 4 uM NADPH, and either 300 μM NADP (saturated) or 30 μM NADP (without saturation). IC50s are determined.IDH1 or IDH2 wildtype (wt) and mutant heterodimers are expressed and purified by methods known in the art. For example, IDH1wt/R132m heterodimer is expressed and purified as follows. Co-expression of IDH1wt-his and IDH1R132C-flag is carried out in sf9 insect cells. Cells (25 g) are resuspended in 250 ml of 50 mM Tris, 500 mM NaCl, pH7.4, at 4° C. with stirring. Cells are disrupted with 4 passes through an M-Y110 Micro fluidizer (Microfluidics) set to 500 psi, and then centrifuged at 22,000 rcf for 20 min at 4° C. The supernatant is harvested and loaded at 15 cm/h on a Histrap FF 5*1 ml column (GE) which is equilibrated with 50 mM Tris, 500 mM NaCl, pH7.4. Host cell contaminants are removed by washing the column with equilibration buffer followed by equilibration buffer containing 20 mM imidazole and 60 mM imidazole to baseline. IDH1wt-his homodimer and IDH1wt-his/IDH1R132C-flag are eluted by equilibration buffer containing 250 mM imidazole. Fractions eluted by 250 mM imidazole are pooled together and loaded at 15 cm/h onto a column pre-packed with 10 ml ANTI-FLAG® M2 Affinity Gel (Sigma), the column is equilibrated with 50 mM Tris, 500 mM NaCl, pH7.4. After washing with equilibration buffer, IDH1wt-his/IDH1R132C-flag heterodimer is eluted by equilibration buffer containing flag peptide (0.2 mg/ml). Aliquots of IDH1wt-his/IDH1R132C-flag are flash frozen in liquid N2 and stored at −80° C. Same conditions are used for the purification of IDH1wt-his/IDH1R132H-flag.
row,Compound,IC50
1,N#CC1(c2cc(Nc3nc(NCC(F)(F)F)nc(-c4cccc(C(F)(F)F)n4)n3)ccn2)CC1,in the range around 75 nM
2,N#CC1(c2cc(Nc3nc(NC4CC5(C4)CC(F)(F)C5)nc(-c4cccc(C(F)(F)F)n4)n3)ccn2)CC1,in the range around 75 nM
3,N#CC1(c2cc(Nc3nc(NC4CCC(F)(F)C4)nc(-c4cccc(C(F)(F)F)n4)n3)ccn2)CC1 (centres undefined),< 50 nM
4,N#CC1(c2cc(Nc3nc(NC4CCC(F)(F)CC4)nc(-c4cccc(C(F)(F)F)n4)n3)ccn2)CC1,< 50 nM
